According to patent publication US10294236B2, “Compounds as rearranged during transfection (RET) inhibitors” (GLAXOSMITHKLINE INTELLECTUAL PROPERTY DEVELOPMENT LIMITED, priority 2014, dated 2019):
pIC50: −log10 of the molar value.

These compounds were tested against T1, Human RET kinase cytoplasmic domain (Homo sapiens, UniProt P07949) (assay: RET kinase enzymatic assay).
T1 construct: made in house
T1 sequence (P07949 658-1114): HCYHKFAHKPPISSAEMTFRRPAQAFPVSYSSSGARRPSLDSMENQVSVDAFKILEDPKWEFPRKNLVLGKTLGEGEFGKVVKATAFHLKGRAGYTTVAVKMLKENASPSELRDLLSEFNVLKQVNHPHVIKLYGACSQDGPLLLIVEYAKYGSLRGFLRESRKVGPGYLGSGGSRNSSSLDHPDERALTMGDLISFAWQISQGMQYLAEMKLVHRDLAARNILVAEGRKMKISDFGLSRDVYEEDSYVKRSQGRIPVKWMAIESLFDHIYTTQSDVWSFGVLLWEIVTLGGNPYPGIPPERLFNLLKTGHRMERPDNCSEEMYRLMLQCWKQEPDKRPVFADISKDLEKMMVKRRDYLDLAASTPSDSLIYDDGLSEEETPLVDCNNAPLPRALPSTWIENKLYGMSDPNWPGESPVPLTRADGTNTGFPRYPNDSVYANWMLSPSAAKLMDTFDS
Type: biochemical
In short: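 GST-RET, 0.2 nM in 2× enzyme mix (HEPES, CHAPS, BSA, DTT), preincubated with inhibitor 30 min at 23 °C. Reaction for 1 h at 23 °C after adding 2× substrate mix: 20 μM ATP, 20 mM MgCl2, 1 μM biotinylated peptide. Single wells per concentration; IC50 from sigmoidal dose-response fit.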

`CCOc1cc(=O)[nH]cc1-c1ncc(NC(=O)Nc2ccc(C3(CO)CC3)c(C(F)(F)F)c2)c(C)n1` [Example 88] and `CCOc1cc(-c2ncc(NC(=O)Nc3ccc(CN4CCC4)c(C(F)(F)F)c3)c(C)n2)c[nH]c1=O` [Example 109] cannot be ordered by pIC50: greater than 7.00 for the first, greater than 7.00 for the second.

`CCOc1cc(-c2ccc(NC(=O)Nc3cnc(C(C)(C)O)c(C(F)(F)F)c3)c(F)c2)c[nH]c1=O` [Example 89] and `CCOc1cc(-c2ccc(NC(=O)Nc3ccc(C(C)(C)O)c(C(F)(F)F)c3)c(F)c2)c[nH]c1=O` [Example 129] cannot be ordered by pIC50: greater than 7.00 for the first, greater than 7.00 for the second.

`CCOc1cc(-c2cc(F)c(NC(=O)Nc3ccc(OC4(C)COC4)c(C(F)(F)F)c3)c(F)c2)c[nH]c1=O` [Example 90] and `CCOc1cc(-c2cnc(NC(=O)Nc3ccc(OC4(C)COC4)c(C(F)(F)F)c3)c(F)c2)c[nH]c1=O` [Example 103] cannot be ordered by pIC50: greater than 7.00 for the first, greater than 7.00 for the second.

`CCOc1cc(-c2ncc(NC(=O)Nc3cc(C(=O)NCCN(C)C)cc(C(F)(F)F)c3)c(C)n2)c[nH]c1=O` [Example 91] and `CCOc1cc(-c2ncc(NC(=O)Nc3cc(OCCN4CCOCC4)cc(C(F)(F)F)c3)c(C)n2)c[nH]c1=O` [Example 99] cannot be ordered by pIC50: greater than 7.00 for the first, greater than 7.00 for the second.

`CCOc1cc(-c2ccc(NC(=O)Nc3cnc(OC(C)C)c(C(F)(F)F)c3)c(F)c2)c[nH]c1=O` [Example 92] and `CCOc1cc(-c2ccc(NC(=O)Nc3ccc(C(C)O)c(C(F)(F)F)c3)c(F)c2)c[nH]c1=O` (centres unmarked) [Example 116] cannot be ordered by pIC50: greater than 7.00 for the first, greater than 7.00 for the second.

`CCOc1cc(-c2ccc(NC(=O)Nc3ccc(OC4(C)COC4)c(C(F)F)c3)c(F)c2)c[nH]c1=O` [Example 93] and `CCOc1cc(=O)[nH]cc1-c1ccc(NC(=O)Nc2ccc(OC3(C)COC3)c(C(F)F)c2)c(F)c1` [Example 124] cannot be ordered by pIC50: greater than 7.00 for the first, greater than 7.00 for the second.

`CC1(Oc2ccc(NC(=O)Nc3ccc(-c4c[nH]c(=O)c(O)c4)cc3F)cc2C(F)(F)F)COC1` [Example 94] and `CNc1cc(-c2ccc(NC(=O)Nc3ccc(OC4(C)COC4)c(C(F)(F)F)c3)c(F)c2)c[nH]c1=O` [Example 95] cannot be ordered by pIC50: greater than 7.00 for the first, greater than 7.00 for the second.

`CCOc1cc(-c2ncc(NC(=O)Nc3ccc(OC4(C)COC4)c(C(F)(F)F)c3)c(C)n2)c[nH]c1=O` [Example 96] and `CCOc1cc(-c2cc(C)c(NC(=O)Nc3ccc(OC4(C)COC4)c(C(F)(F)F)c3)cn2)c[nH]c1=O` [Example 97] cannot be ordered by pIC50: greater than 7.00 for the first, greater than 7.00 for the second.

`CCOc1ccc(NC(=O)Nc2ccc(-c3c[nH]c(=O)c4ccoc34)cc2F)cc1C(F)(F)F` [Example 98] and `CCOc1cc(-c2ccc(NC(=O)Nc3ccc(CO)c(C(F)(F)F)c3)c(F)c2)c[nH]c1=O` [Example 132] cannot be ordered by pIC50: greater than 7.00 for the first, greater than 7.00 for the second.

`COc1cc(-c2ccc(NC(=O)Nc3ccc(OC4(C)COC4)c(C(F)(F)F)c3)c(C)n2)c[nH]c1=O` [Example 100] and `CCOc1cc(-c2ccc(NC(=O)Nc3ccc(OC4(C)COC4)c(C(F)(F)F)c3)c(OC)n2)c[nH]c1=O` [Example 110] cannot be ordered by pIC50: greater than 7.00 for the first, greater than 7.00 for the second.

`CCOc1cc(Oc2ccc(NC(=O)Nc3ccc(OC4(C)COC4)c(C(F)(F)F)c3)cn2)c[nH]c1=O` [Example 101] and `CCOc1cc(-c2ccc(NC(=O)Nc3ccc(OC4(C)COC4)c(C(F)(F)F)c3)cn2)c[nH]c1=O` [Example 106] cannot be ordered by pIC50: greater than 7.00 for the first, greater than 7.00 for the second.

First: CCOc1cc(-c2ccc(NC(=O)Nc3ccc(OC4(C)COC4)c(C(F)(F)F)c3)c(CC)n2)c[nH]c1=O [Example 102]
Second: CCOc1cc(-c2ccc(NC(=O)Nc3ccc(OC4(C)COC4)c(C(F)(F)F)c3)c(N(C)C)n2)c[nH]c1=O [Example 112]
The pIC50 of the first is higher: greater than 7.00 for the first, 6.30 to 7.00 for the second. The first is the more potent here.

First: CCOc1cc(-c2ccc(NC(=O)Nc3ccc(OC4(C)COC4)c(C(F)(F)F)c3)c(C3CC3)n2)c[nH]c1=O [Example 104]
Second: CCOc1cc(-c2ccc(NC(=O)Nc3ccc(OC4(C)COC4)c(C(F)(F)F)c3)c(OC(C)C)n2)c[nH]c1=O [Example 115]
The pIC50 of the first is higher: greater than 7.00 for the first, 5.00 to 6.30 for the second.

`CCOc1cc(-c2cnc(NC(=O)Nc3ccc(OC4(C)COC4)c(C(F)(F)F)c3)c(C)c2)c[nH]c1=O` [Example 105] and `CCOc1cc(-c2cnc(NC(=O)Nc3ccc(OC4(C)COC4)c(C(F)(F)F)c3)c(C)n2)c[nH]c1=O` [Example 108] cannot be ordered by pIC50: greater than 7.00 for the first, greater than 7.00 for the second.

`O=C(Nc1ccc(F)c(C(F)(F)F)c1)Nc1ccc(-c2c[nH]c(=O)c(OCCCF)c2)cc1F` [Example 107] and `CC(C)Oc1ccc(NC(=O)Nc2ccc(-c3c[nH]c(=O)c(OCCCF)c3)cc2F)cc1C(F)(F)F` [Example 121] cannot be ordered by pIC50: greater than 7.00 for the first, greater than 7.00 for the second.

`CCOc1cc(-c2ncc(NC(=O)Nc3ccc(CN4CCCC4)c(C(F)(F)F)c3)c(C)n2)c[nH]c1=O` [Example 111] and `CCOc1cc(-c2cnc(NC(=O)Nc3ccc(CN(C)C)c(C(F)(F)F)c3)c(C)n2)c[nH]c1=O` [Example 114] fall in the same range of pIC50: 6.30 to 7.00 for the first, 6.30 to 7.00 for the second.

Compared with `CCOc1ccc(NC(=O)Nc2ccc(-c3ccc(=O)n(CC)c3)cc2F)cc1C(F)(F)F` [Example 113], `CCOc1cc(-c2ccc(NC(=O)Nc3ccc(OC(C)(C)CO)c(C(F)(F)F)c3)c(F)c2)c[nH]c1=O` [Example 118] is higher in pIC50: 6.30 to 7.00 for the first, greater than 7.00 for the second.

`CCOc1cc(-c2ccc(NC(=O)Nc3ccc(OC4(C)CN(C)C4)c(C(F)(F)F)c3)c(F)c2)c[nH]c1=O` [Example 117] and `CCOc1cc(-c2ccc(NC(=O)Nc3ccc(OC4(C)COC4)c(C(F)(F)F)c3)c(F)c2)c[nH]c1=O` [Example 130] cannot be ordered by pIC50: greater than 7.00 for the first, greater than 7.00 for the second.

`CCOc1cc(-c2ccc(NC(=O)Nc3ccc(OC4(C)COC4)c(C(F)(F)F)c3)c(F)c2F)c[nH]c1=O` [Example 119] and `CCOc1cc(-c2ccc(NC(=O)Nc3ccc(OC4(C)COC4)c(C(F)(F)F)c3)cc2F)c[nH]c1=O` [Example 133] cannot be ordered by pIC50: greater than 7.00 for the first, greater than 7.00 for the second.

`CCOc1cc(-c2ccc(NC(=O)Nc3ccc(C(C)(C)CO)c(C(F)(F)F)c3)c(F)c2)c[nH]c1=O` [Example 120] and `CCOc1cc(-c2ccc(NC(=O)Nc3ccc(C(C)(C)C#N)c(C(F)(F)F)c3)c(F)c2)c[nH]c1=O` [Example 135] cannot be ordered by pIC50: greater than 7.00 for the first, greater than 7.00 for the second.

`CCOc1cc(-c2ccc(NC(=O)Nc3ccc(OC(C)CO)c(C(F)(F)F)c3)c(F)c2)c[nH]c1=O` (centres unmarked) [Example 122] and `CCOc1cc(-c2ccc(NC(=O)Nc3ccc(OC4(CO)CC4)c(C(F)(F)F)c3)c(F)c2)c[nH]c1=O` [Example 123] cannot be ordered by pIC50: greater than 7.00 for the first, greater than 7.00 for the second.

`CCOc1cc(-c2ccc(NC(=O)Nc3ccc(CC(F)(F)CO)c(C(F)(F)F)c3)c(F)c2)c[nH]c1=O` [Example 125] and `CCOc1cc(-c2ccc(NC(=O)Nc3ccc(C(C)C#N)c(C(F)(F)F)c3)c(F)c2)c[nH]c1=O` (centres unmarked) [Example 127] cannot be ordered by pIC50: greater than 7.00 for the first, greater than 7.00 for the second.

`CC1(Oc2ccc(NC(=O)Nc3ccc(-c4c[nH]c(=O)cc4OC(F)F)cc3F)cc2C(F)(F)F)COC1` [Example 126] and `CC(C)Oc1cc(-c2ccc(NC(=O)Nc3ccc(OC4(C)COC4)c(C(F)(F)F)c3)c(F)c2)c[nH]c1=O` [Example 136] cannot be ordered by pIC50: greater than 7.00 for the first, greater than 7.00 for the second.

`CCOc1cc(=O)[nH]cc1-c1ccc(NC(=O)Nc2cc(C(F)(F)F)ccc2F)c(F)c1` [Example 128] and `CCOc1cc(-c2ccc(NC(=O)Nc3ccc(OC4(CO)CCC4)c(C(F)(F)F)c3)c(F)c2)c[nH]c1=O` [Example 134] cannot be ordered by pIC50: greater than 7.00 for the first, greater than 7.00 for the second.

`CCCOc1cc(-c2ccc(NC(=O)Nc3ccc(OC4(C)COC4)c(C(F)(F)F)c3)cc2)c[nH]c1=O` [Example 131] and `Cc1cc(-c2ccc(=O)[nH]c2)ccc1NC(=O)Nc1ccc(OC2(C)COC2)c(C(F)(F)F)c1` [Example 137] cannot be ordered by pIC50: greater than 7.00 for the first, greater than 7.00 for the second.
